Laboratory results taken from PubChem BioAssay AID2060891 (Molecular Pharmacology Branch, DTP, NCI, 2025).

Test system: K98450-129-R-PDC complex spheroid growth, percent test/control
Test: Anticancer human tumor K98450-129-R-PDC patient-derived colon adenocarcinoma cell line growth inhibition [RAS]
Conditions: for IC50: curve of first compound; for viability, T/C: stronger effect = lower value; active = viability on the fitted dose curve at most 10% of control; inactive = the rest
Summary of the method: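 Multi-cell-type spheroids: tumor cells plus HUVEC endothelial cells and mesenchymal stem cells. RAS-pathway inhibitors were combined with targeted agents, each dosed in half-log steps down from clinical Cmax, or from 10 microM when Cmax was unknown.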
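Note: spheroids exposed to agents for seven days before the viability readout.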
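Throughout, for viability, T/C: luminescence used as a proxy for viable cell amount.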

O=C(c1ccc(F)c(F)c1Nc1ccc(I)cc1F)N1CC(O)([C@@H]2CCCCN2)C1 + CCn1c(-c2cccnc2C(C)OC)c2c3cc(ccc31)N1CCOC(CC(NC(=O)C(C(C)C)N(C)C(=O)C3(F)CCN(C(=O)C#CC(C)(C)N(C)C)CC3)C(=O)N3CCCC(N3)C(=O)OCC(C)(C)C2)C1
9.15 nM: IC50 (second compound 0.003 µM)
64.7 nM: IC50 (second compound 0.000949 µM)
inactive: viability, T/C (second compound 0.000949 µM, first compound 0.00316 µM) 76.5% | viability, T/C (second compound 0.000949 µM, first compound 0.01 µM) 53.9% | viability, T/C (second compound 0.000949 µM, first compound 0.0316 µM) 63.3% | viability, T/C (second compound 0.000949 µM, first compound 0.1 µM) 42.2% | viability, T/C (second compound 0.003 µM, first compound 0.00316 µM) 57.1% | viability, T/C (second compound 0.003 µM, first compound 0.01 µM) 44.8% | viability, T/C (second compound 0.003 µM, first compound 0.0316 µM) 40.7% | viability, T/C (second compound 0.003 µM, first compound 0.1 µM) 18% | viability, T/C (second compound 0.00949 µM, first compound 0.00316 µM) 41.7% | viability, T/C (second compound 0.00949 µM, first compound 0.01 µM) 32% | viability, T/C (second compound 0.00949 µM, first compound 0.0316 µM) 22% | viability, T/C (second compound 0.00949 µM, first compound 0.1 µM) 14.2% | viability, T/C (second compound 0.03 µM, first compound 0.00316 µM) 27.4% | viability, T/C (second compound 0.03 µM, first compound 0.01 µM) 33.5% | viability, T/C (second compound 0.03 µM, first compound 0.0316 µM) 25.5% | viability, T/C (second compound 0.03 µM, first compound 0.1 µM) 11% | viability, T/C (second compound 0.0949 µM, first compound 0.00316 µM) 28.3% | viability, T/C (second compound 0.0949 µM, first compound 0.01 µM) 24.3% | viability, T/C (second compound 0.0949 µM, first compound 0.0316 µM) 19.7% | viability, T/C (second compound 0.0949 µM, first compound 0.1 µM) 10.6% | viability, T/C (second compound 0.3 µM, first compound 0.00316 µM) 28.5% | viability, T/C (second compound 0.3 µM, first compound 0.01 µM) 26.5% | viability, T/C (second compound 0.3 µM, first compound 0.0316 µM) 21.9% | viability, T/C (second compound 0.3 µM, first compound 0.1 µM) 10.1%
active: viability, T/C (second compound 0.000949 µM, first compound 0.316 µM) 6.87% | viability, T/C (second compound 0.000949 µM, first compound 1 µM) 2.59% | viability, T/C (second compound 0.003 µM, first compound 0.316 µM) 6.5% | viability, T/C (second compound 0.003 µM, first compound 1 µM) 2.42% | viability, T/C (second compound 0.00949 µM, first compound 0.316 µM) 5.98% | viability, T/C (second compound 0.00949 µM, first compound 1 µM) 2.66% | viability, T/C (second compound 0.03 µM, first compound 0.316 µM) 6.18% | viability, T/C (second compound 0.03 µM, first compound 1 µM) 2.44% | viability, T/C (second compound 0.0949 µM, first compound 0.316 µM) 5.39% | viability, T/C (second compound 0.0949 µM, first compound 1 µM) 2.34% | viability, T/C (second compound 0.3 µM, first compound 0.316 µM) 4.51% | viability, T/C (second compound 0.3 µM, first compound 1 µM) 2.36%
< 3.16 nM: IC50 (second compound 0.00949 µM) | IC50 (second compound 0.03 µM) | IC50 (second compound 0.0949 µM) | IC50 (second compound 0.3 µM)

CC1(C)CCC(Nc2ncc(C(F)(F)F)c(-c3c[nH]c4c(P(C)(C)=O)c(C#N)ccc34)n2)CN1 (centres undefined) + C=CC(=O)N1CCN(c2nc(OCC3CCCN3C)nc3c(F)c(-c4nc(N)cc(C)c4C(F)(F)F)c(Cl)cc23)C(C)C1
270 nM: IC50 (second compound 0.01 µM)
> 300 nM: IC50 (second compound 0.00316 µM)
inactive: viability, T/C (second compound 0.00316 µM, first compound 0.000949 µM) 99.3% | viability, T/C (second compound 0.00316 µM, first compound 0.003 µM) 100% | viability, T/C (second compound 0.00316 µM, first compound 0.00949 µM) 97.8% | viability, T/C (second compound 0.00316 µM, first compound 0.03 µM) 97.6% | viability, T/C (second compound 0.00316 µM, first compound 0.0949 µM) 84.2% | viability, T/C (second compound 0.00316 µM, first compound 0.3 µM) 53.7% | viability, T/C (second compound 0.01 µM, first compound 0.000949 µM) 86.4% | viability, T/C (second compound 0.01 µM, first compound 0.003 µM) 87.3% | viability, T/C (second compound 0.01 µM, first compound 0.00949 µM) 84.2% | viability, T/C (second compound 0.01 µM, first compound 0.03 µM) 86.2% | viability, T/C (second compound 0.01 µM, first compound 0.0949 µM) 70.6% | viability, T/C (second compound 0.01 µM, first compound 0.3 µM) 47.5% | viability, T/C (second compound 0.0316 µM, first compound 0.000949 µM) 70.5% | viability, T/C (second compound 0.0316 µM, first compound 0.003 µM) 76.3% | viability, T/C (second compound 0.0316 µM, first compound 0.00949 µM) 77.3% | viability, T/C (second compound 0.0316 µM, first compound 0.03 µM) 76% | viability, T/C (second compound 0.0316 µM, first compound 0.0949 µM) 58.5% | viability, T/C (second compound 0.0316 µM, first compound 0.3 µM) 41.2% | viability, T/C (second compound 0.1 µM, first compound 0.000949 µM) 60.1% | viability, T/C (second compound 0.1 µM, first compound 0.003 µM) 54.5% | viability, T/C (second compound 0.1 µM, first compound 0.00949 µM) 56.1% | viability, T/C (second compound 0.1 µM, first compound 0.03 µM) 59% | viability, T/C (second compound 0.1 µM, first compound 0.0949 µM) 46% | viability, T/C (second compound 0.1 µM, first compound 0.3 µM) 34.5% | viability, T/C (second compound 0.316 µM, first compound 0.000949 µM) 41.1% | viability, T/C (second compound 0.316 µM, first compound 0.003 µM) 41.3% | viability, T/C (second compound 0.316 µM, first compound 0.00949 µM) 40.6% | viability, T/C (second compound 0.316 µM, first compound 0.03 µM) 41.3% | viability, T/C (second compound 0.316 µM, first compound 0.0949 µM) 37.8% | viability, T/C (second compound 0.316 µM, first compound 0.3 µM) 31% | viability, T/C (second compound 1 µM, first compound 0.000949 µM) 35.1% | viability, T/C (second compound 1 µM, first compound 0.003 µM) 33.3% | viability, T/C (second compound 1 µM, first compound 0.00949 µM) 35.1% | viability, T/C (second compound 1 µM, first compound 0.03 µM) 33.8% | viability, T/C (second compound 1 µM, first compound 0.0949 µM) 32.9% | viability, T/C (second compound 1 µM, first compound 0.3 µM) 32.5%
< 0.949 nM: IC50 (second compound 0.316 µM) | IC50 (second compound 1 µM)
166 nM: IC50 (second compound 0.0316 µM)
72.1 nM: IC50 (second compound 0.1 µM)
